We go through eleven molecules from ChEMBL document CHEMBL1135793 (J Med Chem, 2002).

The pIC50 is the negative decadic logarithm of the IC50, by convention in mol/L. A high value points to a small IC50.

pIC50: −log10 of the molar value. Positions of bridges follow the written chain, without caps; N, C: chain ends. Non-standard residues stand in square brackets, D forms with d. Residues, ends and D or L forms follow the SMILES beside them. Nle = CCCC[C@H](N)C(=O)O

The assay addresses Urokinase plasminogen activator surface receptor (Homo sapiens, UniProt Q03405). The assay is described as follows: Inhibitory activity against human Urokinase plasminogen activator receptor (uPAR) was determined.

Chain of Urokinase plasminogen activator surface receptor (Q03405 whole entry): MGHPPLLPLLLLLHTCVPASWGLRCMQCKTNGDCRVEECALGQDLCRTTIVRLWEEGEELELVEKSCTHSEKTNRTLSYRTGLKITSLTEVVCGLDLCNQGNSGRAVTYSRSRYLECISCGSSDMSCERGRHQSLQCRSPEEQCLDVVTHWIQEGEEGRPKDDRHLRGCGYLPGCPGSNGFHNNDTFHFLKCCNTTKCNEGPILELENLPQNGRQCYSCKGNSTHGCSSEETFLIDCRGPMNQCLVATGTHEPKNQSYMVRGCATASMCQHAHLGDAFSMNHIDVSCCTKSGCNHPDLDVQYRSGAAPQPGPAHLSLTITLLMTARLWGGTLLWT

For the molecule `CC[C@H](C)[C@@H]1NC(=O)[C@H](CC(N)=O)NC(=O)[C@H](CO)NC(=O)[C@H](Cc2ccccc2)NC(=O)[C@H](Cc2cccc3ccccc23)NC(=O)[C@H](CCCCN)NC(=O)[C@H](CC(N)=O)NC(=O)[C@H](N)CSSC[C@@H](C(=O)N[C@@H](Cc2c[nH]c3ccccc23)C(=O)O)NC1=O`, the negative-log IC50 (pIC50) was 7.30.

`CC[C@H](C)[C@@H]1NC(=O)[C@H](CC(N)=O)NC(=O)[C@H](CO)NC(=O)[C@H](Cc2ccccc2)NC(=O)[C@H](Cc2ccc(O)cc2)NC(=O)[C@H](CCCCN)NC(=O)[C@@H](CC(N)=O)NC(=O)[C@@H](N)CSSC[C@@H](C(=O)N[C@@H](Cc2c[nH]c3ccccc23)C(=O)O)NC1=O` gave a pIC50 below 4.52.

`CCCC[C@@H]1NC(=O)[C@H](CC(N)=O)NC(=O)[C@H](N)CSSC[C@@H](C(=O)N[C@@H](Cc2c[nH]c3ccccc23)C(=O)O)NC(=O)[C@H]([C@@H](C)CC)NC(=O)[C@H](CC(N)=O)NC(=O)[C@H](CO)NC(=O)[C@H](Cc2ccccc2)NC(=O)[C@H](Cc2ccc(O)cc2)NC1=O` (H-[dC]N[Nle]YFSNICW-OH; disulfide 1-9) gave a pIC50 of 7.22.

As for `CC[C@H](C)[C@@H]1NC(=O)[C@H](CC(N)=O)NC(=O)[C@H](CO)NC(=O)[C@H](Cc2ccccc2)NC(=O)[C@H](Cc2ccc(O)cc2)NC(=O)[C@H](CCCCN)NC(=O)[C@H](CC(N)=O)NC(=O)[C@@H](N)CSSC[C@@H](C(=O)N[C@@H](Cc2c[nH]c3ccccc23)C(=O)O)NC1=O`, the pIC50 was 6.05.

Regarding `CC[C@H](C)[C@@H]1NC(=O)[C@@H](CC(N)=O)NC(=O)[C@H](CO)NC(=O)[C@H](Cc2ccccc2)NC(=O)[C@H](Cc2ccc(O)cc2)NC(=O)[C@H](CCCCN)NC(=O)[C@H](CC(N)=O)NC(=O)[C@@H](N)CSSC[C@@H](C(=O)N[C@@H](Cc2c[nH]c3ccccc23)C(=O)O)NC1=O`, the pIC50 is below 4.52.

As to `CC[C@H](C)[C@@H]1NC(=O)[C@H](CC(N)=O)NC(=O)[C@@H](CO)NC(=O)[C@H](Cc2ccccc2)NC(=O)[C@H](Cc2ccc(O)cc2)NC(=O)[C@H](CCCCN)NC(=O)[C@H](CC(N)=O)NC(=O)[C@@H](N)CSSC[C@@H](C(=O)N[C@@H](Cc2c[nH]c3ccccc23)C(=O)O)NC1=O`, the pIC50 is below 4.52.

Consider `CC[C@H](C)[C@@H]1NC(=O)[C@H](CC(N)=O)NC(=O)[C@H](CO)NC(=O)[C@H](Cc2ccccc2)NC(=O)[C@H](Cc2ccc3ccccc3c2)NC(=O)[C@H](CCCCN)NC(=O)[C@H](CC(N)=O)NC(=O)[C@H](N)CSSC[C@@H](C(=O)N[C@@H](Cc2c[nH]c3ccccc23)C(=O)O)NC1=O`, for which the pIC50 was 7.10.

In turn, `CC[C@H](C)[C@@H]1NC(=O)[C@H](CC(N)=O)NC(=O)[C@H](CO)NC(=O)[C@H](Cc2ccccc2)NC(=O)[C@H](Cc2ccc(O)cc2)NC(=O)[C@H](CCCCN)NC(=O)[C@H](CC(N)=O)NC(=O)[C@H](CO)NC(=O)[C@H](C(C)C)NC(=O)[C@@H](N)CSSC[C@@H](C(=O)O)NC(=O)[C@H](Cc2c[nH]c3ccccc23)NC(=O)[C@H](Cc2c[nH]cn2)NC1=O` had a pIC50 of 6.15.

Take `CC[C@H](C)[C@@H]1NC(=O)[C@H](CC(N)=O)NC(=O)[C@H](CO)NC(=O)[C@H](Cc2ccccc2)NC(=O)[C@H](Cc2ccc(O)cc2)NC(=O)[C@H](CCCCN)NC(=O)[C@H](CC(N)=O)NC(=O)[C@H](CO)NC(=O)[C@H](C(C)C)NC(=O)[C@H](N)CSSC[C@@H](C(=O)O)NC(=O)[C@H](Cc2c[nH]c3ccccc23)NC(=O)[C@H](Cc2c[nH]cn2)NC1=O`: the negative logarithm of the IC50 (pIC50) was 6.70.

For `CC[C@H](C)[C@@H]1NC(=O)[C@H](CC(N)=O)NC(=O)[C@H](CO)NC(=O)[C@H](Cc2ccccc2)NC(=O)[C@H](Cc2ccc(O)cc2)NC(=O)[C@@H](CCCCN)NC(=O)[C@H](CC(N)=O)NC(=O)[C@@H](N)CSSC[C@@H](C(=O)N[C@@H](Cc2c[nH]c3ccccc23)C(=O)O)NC1=O`, the pIC50 was below 4.52.

`CC[C@H](C)[C@@H]1NC(=O)[C@H](CC(N)=O)NC(=O)[C@H](CO)NC(=O)[C@H](Cc2ccccc2)NC(=O)[C@H](Cc2ccc(O)cc2)NC(=O)[C@H](CCCCN)NC(=O)[C@H](CC(N)=O)NC(=O)[C@H](N)CSSC[C@@H](C(=O)N[C@@H](Cc2c[nH]c3ccccc23)C(=O)O)NC1=O` had a pIC50 of 7.40.
